Data: US20020159994A1, “Biotin derivatives” (priority 2000, published 2002)

Molecular target: T1, Mitra Avidin-Agarose (Gallus gallus, UniProt P02701)
T1 construct: Mitra (Mitra Medical Technology AB)
Assay: Adsorption of biotin-trimer to avidin-agarose column (conditioning, ELISA of recirculated fluid)
Type: binding
Set-up: biotin-trimer bound if one biotin-trimer is bound per available binding site: unit not given here
Method: Two mL of Mitra Avidin-Agarose was packed into a column housing and was washed with >10 mL of PBS at a flow rate of 1 mL/min (1.6 cm/min). Five mL of a 1 mg/mL solution of biotin-trimer in PBS was recirculated through the avidin-column at 1 mL/min for 20 minutes. At end of the recirculation, a sample (0.5 mL) was drawn from the recirculated solution and analysed by an ELISA technique developed by Mitra Medical Technology AB. The biotin-avidin-agarose-column was washed with phosphate buffer at 1 mL/min for 20 minutes. By determining the concentration of biotin-trimer in the recirculated fluid, the amount of adsorbed biotin-trimer was estimated to about 1.9 mg i.e. […] of gel at the end of recirculation.
Biotin-trimer was adsorbed to 2 mL of Mitra Avidin-Agarose. […] If one biotin-trimer is bound per available binding site this would correspond to […] biotin-trimer/mL. As about 0.95 mg biotin-trimer was bound per mL avidin-agarose it can be assumed that the adsorbent was saturated with biotin-trimer.

T1 sequence (P02701 25-152): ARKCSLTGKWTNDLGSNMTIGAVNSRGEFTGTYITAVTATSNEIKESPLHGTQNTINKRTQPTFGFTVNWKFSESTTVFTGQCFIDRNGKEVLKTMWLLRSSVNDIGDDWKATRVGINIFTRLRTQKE

SMILES: O=C(CCCCC1OCC2NC(=O)NC21)NCCOCCOCCNC(=O)c1cc(C(=O)NCCOCCOCCNC(=O)CCCCC2OCC3NC(=O)NC32)cc(C(=O)NCCOCCOCCNC(=O)CCCCC2OCC3NC(=O)NC32)c1 (stereo not shown) [biotin-trimer]
- biotin-trimer bound per mL avidin-agarose (2 mL Mitra Avidin-Agarose): about 0.95 mg per mL avidin-agarose
- amount of adsorbed biotin-trimer at end of recirculation (2 mL Mitra Avidin-Agarose, 5 mL of 1 mg/mL biotin-trimer in PBS recirculated at 1 mL/min for 20 minutes): about 1.9 mg
- amount of adsorbed biotin-trimer per mL of gel (2 mL Mitra Avidin-Agarose, end of 20 min recirculation): ~0.95 mg/mL
- biotin-trimer bound if one biotin-trimer is bound per available binding site (theoretical, from static biotin binding capacity): 514
